Measured values published in patent US20170156324A1 (Dow AgroSciences LLC, priority 2015, published 2017).
Values joined by “and” are separate entries in the source; they are usually repeats but may differ in a detail not shown here. Equal values may be shown once.

What was measured:
Type in all cases: in vivo
[1] = tested on: Apera spica-venti (L.) Beauv. (windgrass, APESV); assay: Field trial, post-emergence % visual weed control, APESV
Excerpt: (§1) Except for the trials utilizing the OD formulations, Actirob B was applied at 0.5 or 1.0 liters per hectare (L/ha), or Polyglycol 26-2 was applied at 0.5 to 1.0 L/ha in all respective single and tankmixture treatments being evaluated.
(§2) Trials were established as randomized complete blocks (RCBD) with three to four replicates. Individual treatments were 2-2.5 meters (m) wide and 6-20 m long. An untreated control was included in each trial. All trial sites had naturally occurring populations of weeds.
(§3) Herbicides were applied with backpack or bicycle sprayers using compressed air, nitrogen (N2) or carbon dioxide (CO2) as a propellant. All sprayers delivered a uniform spray pattern that provided thorough coverage of the foliage using a water volume of 150-300 L/ha. All herbicides were applied post-emergence in the spring to early-summer At the time of herbicide applications, winter wheat crops were at the six-leaf to three-tiller stage. Broadleaf and grass weeds were at a similar stage of growth at the time of herbicide application, typically from five leaf to 3 tiller depending on the weed species and time of year.
(§4) The treated plots and control plots were rated blind at various intervals after application. […] The control of the target weeds was visually assessed as percent control, compared to an untreated control plot. The assessments were based on a percent visual reduction in pest plant biomass and/or stand reduction of weed population.
(§5) The efficacy of all treatments was assessed at 13-22 days after application (DAA) for an early season rating, 23-39 DAA for a mid-season rating, and 41-84 DAA for a late-season rating. The data were statistically analyzed using various statistical methods, generally including a Tukey's HSD Factorial Analysis of Variance with a significance level of 5%.
(§6) Colby's equation was used to determine the herbicidal effects expected from the mixtures (Colby, S. R. Calculation of the synergistic and antagonistic response of herbicide combinations. Weeds 1967, 15, 20-22). A t-test (alpha=0.05) between Colby predictions and observed combinations was used to test for significant differences indicating synergy or antagonism using replicate data.
(§7) Expected=A+B+C−(AB+AC+BC)/100+(ABC)/10,000

[2] = tested on: Echinochloa crus-galli (L.) P. Beauv. (barnyardgrass, ECHCG); assay: Field trial, post-emergence % visual weed control, ECHCG
Excerpt: as §1, §2, §3, §4, §5, §6, §7

[3] = tested on: Galium aparine L. (catchweed bedstraw, GALAP); assay: Field trial, post-emergence % visual weed control, GALAP; details: 28DAA
Excerpt: as §1, §2, §3, §4, §5
(§8) Colby's equation was used to determine the herbicidal effects expected from the mixtures (Colby, S. R. Calculation of the synergistic and antagonistic response of herbicide combinations. Weeds 1967, 15, 20-22). […]

[4] = tested on: Lamium purpureum L. (purple deadnettle, LAMPU); assay: Field trial, post-emergence % visual weed control, LAMPU
Excerpt: as §1, §2, §3, §4, §5, §6, §7

[5] = tested on: Stellaria media (L.) Vill. (common chickweed, STEME); assay: Field trial, post-emergence % visual weed control, STEME
Excerpt: as §1, §2, §3, §4, §5, §6, §7

[6] = tested on: Centaurea cyanus (cornflower, CENCY); assay: Field trial, post-emergence % visual weed control, CENCY
Excerpt: as §1, §2, §3, §4, §5, §6, §7

[7] = tested on: Consolida regalis S. F. Gray (branching larkspur, CNSRE); assay: Field trial, post-emergence % visual weed control, CNSRE
Excerpt: as §1, §2, §3, §4, §5, §6, §7

[8] = tested on: Alopecurus myosuroides Huds. (blackgrass, ALOMY); assay: Field trial, post-emergence % visual weed control, ALOMY; details: 15DAA
Excerpt: as §1, §2, §3, §4, §5, §8

[9] = tested on: Solanum nigrum L. (black nightshade, SOLNI); assay: Field trial, post-emergence % visual weed control, SOLNI
Excerpt: as §1, §2, §3, §4, §5, §6, §7

[10] = tested on: Viola arvensis Murr. (field violet, VIOAR); assay: Field trial, post-emergence % visual weed control, VIOAR
Excerpt: as §1, §2, §3, §4, §5, §6, §7

[11] = tested on: Matricaria recutita L. (wild chamomile, MATCH); assay: Field trial, post-emergence % visual weed control, MATCH
Excerpt: as §1, §2, §3, §4, §5, §6, §7

[12] = tested on: Agropyron repens L. (quackgrass, AGRRE); assay: Field trial, post-emergence % visual weed control, AGRRE; details: 14DAA
Excerpt: as §1, §2, §3, §4, §5, §8

[13] = tested on: Matricaria inodora (scentless mayweed, MATIN); assay: Field trial, post-emergence % visual weed control, MATIN; details: 14DAA
Excerpt: as §1, §2, §3, §4, §5, §6, §7

[14] = tested on: Avena macrocarpa Moench (wild red oat, AVEST); assay: Field trial, post-emergence % visual weed control, AVEST; details: 32DAA, 18.75 g ai/ha
Excerpt: as §1, §2
(§9) Herbicides were applied with backpack or bicycle sprayers using compressed air, nitrogen (N2) or carbon dioxide (CO2) as a propellant. All sprayers delivered a uniform spray pattern that provided thorough coverage of the foliage using a water volume of 150-300 L/ha. […]
(§10) The treated plots and control plots were rated blind at various intervals after application. […] The control of the target weeds was visually assessed as percent control, compared to an untreated control plot. […]
as §5, with “5%. […]” for “5%.”

[15] = tested on: Lolium rigidum (rigid ryegrass, LOLRI); assay: Field trial, post-emergence % visual weed control, LOLRI; details: 28DAA, 22.5 g ai/ha
Excerpt: as §1, §2, §9, §10
as §5, with “5%. […]” for “5%.”

[16] = tested on: Papaver rhoeas L. (common poppy, PAPRH); assay: Field trial, post-emergence % visual weed control, PAPRH; details: 56DAA, 22.5 g ai/ha
Excerpt: as §1, §2, §9, §10
as §5, with “5%. […]” for “5%.”

[17] = tested on: Lolium L. sp. (ryegrass, LOLSS); assay: Field trial, post-emergence % visual weed control, LOLSS; details: 14DAA, 18.75 g ai/ha
Excerpt: as §1, §2, §9, §10
as §5, with “5%. […]” for “5%.”

[18] = tested on: Lolium multiflorum Lam. (Italian ryegrass, LOLMU); assay: Field trial, post-emergence % visual weed control, LOLMU; details: 22.5 g ai/ha
Excerpt: as §1, §2, §9, §10
as §5, with “5%. […]” for “5%.”

Avena sp. (oats, AVESS) = assay: Field trial, post-emergence % visual weed control, AVESS; details: 76DAA, 18.75 g ai/ha
Excerpt: as §1, §2, §9, §10
as §5, with “5%. […]” for “5%.”

COc1ncc(F)c2nc(S(=O)(=O)Nc3c(F)cccc3F)nn12 [Florasulam, N-(2,6-difluorophenyl)-8-fluoro-5-methoxy[1,2,4]triazolo[1,5-c]pyrimidine-2-sulfonamide]
Mean % Weed Control ([1]; 14DAA, 3 g ai/ha): 0.0% | Mean % Weed Control ([1]; 14DAA, 4 g ai/ha): 0.0% | Mean % Weed Control ([1]; 28DAA, 3 g ai/ha): 0.0% | Mean % Weed Control ([1]; 28DAA, 4 g ai/ha): 0.0% | Mean % Weed Control ([1]; 56DAA, 3 g ai/ha): 0.0% | Mean % Weed Control ([1]; 56DAA, 4 g ai/ha): 0.0% | Mean % Weed Control ([2]; 14DAA, 6.25 g ai/ha): 20.0% | Mean % Weed Control ([2]; 29DAA, 6.25 g ai/ha): 10.0% | Mean % Weed Control ([2]; 56DAA, 6.25 g ai/ha): 10.0% | Mean % Weed Control ([3]; 3 g ai/ha): 57.5% | Mean % Weed Control ([4]; 15DAA, 3.75 g ai/ha): 0.0% | Mean % Weed Control ([5]; 15DAA, 3.75 g ai/ha): 0.0% | Mean % Weed Control ([5]; 61DAA, 3.75 g ai/ha): 68.8% and 56.1% | Mean % Weed Control ([5]; 78DAA, 3.75 g ai/ha): 31.3% | Mean % Weed Control ([6]; 28DAA, 3 g ai/ha): 48.8% | Mean % Weed Control ([6]; 28DAA, 4 g ai/ha): 75.0% | Mean % Weed Control ([6]; 56DAA, 3 g ai/ha): 27.5% and 48.8% | Mean % Weed Control ([6]; 77DAA, 3 g ai/ha): 40.0% | Mean % Weed Control ([6]; 77DAA, 4 g ai/ha): 82.5% | Mean % Weed Control ([6]; 84DAA, 4 g ai/ha): 30.0% | Mean % Weed Control ([7]; 31DAA, 3 g ai/ha): 75.0% | Mean % Weed Control ([7]; 31DAA, 4 g ai/ha): 75.0% | Mean % Weed Control ([7]; 53DAA, 3 g ai/ha): 78.5% | Mean % Weed Control ([7]; 53DAA, 4 g ai/ha): 79.5% | Mean % Weed Control ([7]; 84DAA, 3 g ai/ha): 79% | Mean % Weed Control ([7]; 84DAA, 4 g ai/ha): 80% | Mean % Weed Control ([8]; 3 g ai/ha): 2.5% | Mean % Weed Control ([9]; 29DAA, 6.25 g ai/ha): 40.0% | Mean % Weed Control ([9]; 56DAA, 6.25 g ai/ha): 20.0% | Mean % Weed Control ([10]; 14DAA, 3 g ai/ha): 0.0% | Mean % Weed Control ([10]; 56DAA, 4 g ai/ha): 20.0% | Mean % Weed Control ([11]; 15DAA, 3.75 g ai/ha): 10.0% | Mean % Weed Control ([11]; 61DAA, 3.75 g ai/ha): 85.0% and 67.4% | Mean % Weed Control ([11]; 78DAA, 3.75 g ai/ha): 76.3% | Mean % Weed Control ([12]; 4 g ai/ha): 0.0% | Mean % Weed Control ([13]; 3 g ai/ha): 30.0% | Mean % Weed Control ([13]; 4 g ai/ha): 35.0%

COc1cc(OC)n2nc(NS(=O)(=O)c3c(C(F)(F)F)ccnc3OC)nc2n1 [Pyroxsulam, N-(5,7-dimethoxy[1,2,4]triazolo[1,5-a]pyrimidin-2-yl)-2-methoxy-4-(trifluoromethyl)-pyridine-3-sulfonamide]
Mean % Weed Control ([1]; 14DAA, 12 g ai/ha): 72.5% | Mean % Weed Control ([1]; 28DAA, 12 g ai/ha): 88.8% | Mean % Weed Control ([1]; 56DAA, 12 g ai/ha): 94.5% | Mean % Weed Control ([2]; 14DAA, 18.75 g ai/ha): 85.0% | Mean % Weed Control ([2]; 29DAA, 18.75 g ai/ha): 75.0% | Mean % Weed Control ([2]; 56DAA, 18.75 g ai/ha): 60.0% | Mean % Weed Control ([3]; 12 g ai/ha): 89.5% | Mean % Weed Control ([4]; 15DAA, 9.6 g ai/ha): 16.3% | Mean % Weed Control ([4]; 15DAA, 12 g ai/ha): 10.0% | Mean % Weed Control ([4]; 32DAA, 9.6 g ai/ha): 0.0% | Mean % Weed Control [14]: 97.8% | Mean % Weed Control ([5]; 15DAA, 9.6 g ai/ha): 0.0% | Mean % Weed Control ([5]; 15DAA, 12 g ai/ha): 0.0% | Mean % Weed Control ([5]; 61DAA, 9.6 g ai/ha): 5.0% and 11.1% | Mean % Weed Control ([5]; 61DAA, 12 g ai/ha): 3.8% and 9.7% | Mean % Weed Control ([5]; 78DAA, 9.6 g ai/ha): 16.3% | Mean % Weed Control ([5]; 78DAA, 12 g ai/ha): 13.8% | Mean % Weed Control ([6]; 28DAA, 12 g ai/ha): 38.8% | Mean % Weed Control ([6]; 77DAA, 12 g ai/ha): 15.0% | Mean % Weed Control ([6]; 84DAA, 12 g ai/ha): 12.5% | Mean % Weed Control [15]: 72.5% | Mean % Weed Control ([7]; 31DAA, 12 g ai/ha): 66.8% | Mean % Weed Control ([7]; 53DAA, 12 g ai/ha): 70.0% | Mean % Weed Control ([7]; 84DAA, 12 g ai/ha): 70% | Mean % Weed Control ([8]; 12 g ai/ha): 27.5% | Mean % Weed Control [16]: 1.9% | Mean % Weed Control ([9]; 29DAA, 18.75 g ai/ha): 50.0% | Mean % Weed Control ([9]; 56DAA, 18.75 g ai/ha): 30.0% | Mean % Weed Control [17]: 90.0% | Mean % Weed Control ([10]; 14DAA, 12 g ai/ha): 61.3% | Mean % Weed Control ([10]; 56DAA, 12 g ai/ha): 93.8% | Mean % Weed Control ([11]; 15DAA, 9.6 g ai/ha): 12.8% | Mean % Weed Control ([11]; 61DAA, 9.6 g ai/ha): 16.3% and 23.7% | Mean % Weed Control ([11]; 61DAA, 12 g ai/ha): 20.0% and 26.3% | Mean % Weed Control ([11]; 78DAA, 9.6 g ai/ha): 17.0% | Mean % Weed Control ([11]; 78DAA, 12 g ai/ha): 18.8% | Mean % Weed Control ([12]; 12 g ai/ha): 37.5% | Mean % Weed Control ([18]; 28DAA): 72.5% | Mean % Weed Control ([18]; 55DAA): 72.5% | Mean % Weed Control (Avena sp. (oats, AVESS)): 62.0% | Mean % Weed Control ([13]; 12 g ai/ha): 20.0%
